Where a name gives a salt, the structure may show the parent alone.

In the experiment the target is T1, HERG channel (Homo sapiens, UniProt Q12809).
T1 construct: expressed in transfected cells
T1 sequence (Q12809 whole entry): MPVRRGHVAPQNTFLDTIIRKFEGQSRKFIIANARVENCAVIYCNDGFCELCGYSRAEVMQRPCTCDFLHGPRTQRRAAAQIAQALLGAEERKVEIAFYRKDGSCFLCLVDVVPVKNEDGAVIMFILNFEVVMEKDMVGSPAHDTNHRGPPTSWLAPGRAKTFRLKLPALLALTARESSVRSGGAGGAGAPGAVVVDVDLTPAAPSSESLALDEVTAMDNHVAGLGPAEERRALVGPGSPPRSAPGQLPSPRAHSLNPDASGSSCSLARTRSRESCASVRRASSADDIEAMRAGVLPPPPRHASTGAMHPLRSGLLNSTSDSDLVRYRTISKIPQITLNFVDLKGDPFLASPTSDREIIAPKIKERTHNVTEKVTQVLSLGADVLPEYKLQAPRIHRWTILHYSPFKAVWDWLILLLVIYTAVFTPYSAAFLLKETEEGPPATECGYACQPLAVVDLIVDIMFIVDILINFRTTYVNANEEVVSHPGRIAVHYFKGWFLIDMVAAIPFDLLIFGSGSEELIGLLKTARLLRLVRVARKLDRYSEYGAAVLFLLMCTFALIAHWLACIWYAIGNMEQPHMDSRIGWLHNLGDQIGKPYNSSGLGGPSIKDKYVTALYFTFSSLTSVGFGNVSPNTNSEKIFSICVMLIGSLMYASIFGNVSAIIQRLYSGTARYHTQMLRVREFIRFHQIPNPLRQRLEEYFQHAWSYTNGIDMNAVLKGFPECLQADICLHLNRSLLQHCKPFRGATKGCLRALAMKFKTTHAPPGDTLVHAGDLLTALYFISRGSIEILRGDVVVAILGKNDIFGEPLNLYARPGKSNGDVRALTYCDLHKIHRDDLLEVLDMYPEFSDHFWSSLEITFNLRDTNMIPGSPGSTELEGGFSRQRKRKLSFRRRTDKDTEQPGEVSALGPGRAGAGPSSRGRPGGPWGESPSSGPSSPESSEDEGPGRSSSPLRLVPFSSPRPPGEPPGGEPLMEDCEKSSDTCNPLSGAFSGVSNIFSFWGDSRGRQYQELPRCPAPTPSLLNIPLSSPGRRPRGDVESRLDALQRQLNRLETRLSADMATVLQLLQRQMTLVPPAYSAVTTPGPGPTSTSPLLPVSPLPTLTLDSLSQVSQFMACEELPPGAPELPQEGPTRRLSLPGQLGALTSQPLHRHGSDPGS
Kind of experiment: Test B: Rb+-efflux assay for detection of HERG channel blockers. The experiment is classed as cell-based. Conditions: depolarisation-induced Rb+-efflux from Chinese hamster ovary cells stably expressing the HERG-channel; read-out: pIC50 for HERG channel blockade (converted). Here is the method: Rb^+-Efflux Assay for Detection of HERG Channel Blockers
The human ether-a-go-go related gene (HERG) encodes the voltage-gated K^+ channel underlying the cardiac rapid delayed rectifier current IKr. The IC50 value for HERG channel blockade was determined using a high throughput functional assay based on depolarisation-induced Rb^+-efflux from Chinese hamster ovary cells stably expressing the HERG-channel.
Cells were grown in Ham F12 (Life Technologies 31765-027) supplemented with 10% FBS and 0.6 mg/mL hygromycin B and were routinely passaged twice-weekly. For experimental studies, cells were plated at a density of 15,000 cells/well in Falcon, 384-well tissue culture-treated black-walled clear-bottomed plates and were thereafter incubated overnight at 37° C. in a cell culture incubator.
Following incubating overnight, cell plates were washed and a Rb^+-Load buffer (a physiological buffer containing Rb^+) was added. Cell plates were then incubated for 3 hours and were thereafter washed. Following this wash, the test compounds were added. The cell plates were then incubated for another 10 minutes and, following this incubation period, external K^+ concentration was increased in order to depolarize the cells and activate HERG channels. After a ten minute exposure period to the increased K^+ concentration, supernatants were transferred to new microplates for subsequent determination of Rb^+ content, using Atomic Absorption Spectrometry analysis.
The basal Rb^+ efflux (content of Rb^+ (mg/L) in supernatants of wells receiving only wash buffer) was defined as 100% inhibition and the stimulated Rb^+efflux (content of Rb^+ (mg/L) in supernatants of wells exposed only to increased external potassium concentration) was defined as 0% inhibition.
Compound activity was expressed as: […]
A: Rb^+ content in wells receiving test compound+increased external K^+.
C: Stimulated Rb^+ efflux.
As for `CS(=O)(=O)N(CCOc1ccc(C#N)cc1)CCN1CC2CN(Cc3ccccc3)CC(C1)O2` [Example 2, N-[2-(7-Benzyl-9-oxa-3,7-diazabicyclo[3.3.1]non-3-yl)ethyl]-N-[2-(4-cyanophenoxy)ethyl]methanesulfonamide, tartaric acid salt], the IC50 was 2820 nM.
As to `CS(=O)(=O)N(CCOc1ccc(C#N)cc1)CCN1CC2CN(Cc3ccc(F)cc3)CC(C1)O2` [Example 3, N-[2-(4-Cyanophenoxy)ethyl]-N-{2-[7-(4-fluorobenzyl)-9-oxa-3,7-diaza-bicyclo[3.3.1]non-3-yl]ethyl}methanesulfonamide], the IC50 was 1580 nM.
For `CN(C)C(=O)N(CCOc1ccc(C#N)cc1)CCN1CC2CN(Cc3ccc(OC(F)F)cc3)CC(C1)O2` [9 (xlvi), N-[2-(4-cyanophenoxy)ethyl]-N-(2-{7-[4-(difluoromethoxy)-benzyl]-9-oxa-3,7-diazabicyclo[3.3.1]non-3-yl}ethyl)-N′,N′-dimethylurea] the value was 4170 nM.

The record behind these values is patent US7354917B2, “Oxabispidine compounds and their use in the treatment of cardiac arrhythmias” (AstraZeneca AB, priority 2004, dated 2008).
